Source: ChEMBL document CHEMBL1629642, “In vitro efficacy of ST246 against smallpox and monkeypox” (Antimicrob Agents Chemother, 2009)
Active and inactive are the calls of the source. The calls are words filed in the database; no cut-off is given here.

Columns and labels:
Assay type in all cases: functional, organism-based
Monkeypox virus = test: Antiviral activity against Monkeypox virus V77-I-823 infected in african green monkey BSC-40 cells at 0.005 uM uM by IHC staining-based plaque reduction assay
Variola virus [1] = test: Antiviral activity against Variola virus BSH74-sol infected in african green monkey BSC-40 cells at 0.015 uM assessed as reduction in virus-induced cytopathic effect
Variola virus [2] = test: Antiviral activity against Variola virus NEP73-175 infected in african green monkey BSC-40 cells at 0.05 to 5 uM assessed as reduction in virus-induced cytopathic effect

O=C(NN1C(=O)[C@@H]2[C@@H]3C=C[C@@H]([C@H]4C[C@@H]34)[C@@H]2C1=O)c1ccc(C(F)(F)F)cc1 [TECOVIRIMAT]
Activity (Monkeypox virus): inactive
Activity (Variola virus [1]): Active
Activity (Variola virus [2]): Active
